Like-named read-outs stand apart in the source and are kept apart here.

One data set has as its system non-anesthetized mice. The data set can be described thus: Prolonging effect upon the bleeding time (method of Duke). It counts as in vivo. The settings on record: 10 mgm/kg per os, vs untreated animals; for change in vivo at 10 mg/kg: Mus musculus, po. The source says:
2. The prolonging effect upon the bleeding time was ascertained by the method of Duke, J. Amer. Med. Assoc. 15, 1185 (1910). 10 mgm/kg of the test compound were given per os to non-anesthetized mice. One or three hours after administration of the test compound, about 0.5 mm was cut off from the tail of each animal, and the exuded blood was carefully soaked up with filter paper at intervals of 30 seconds. The number of drops of blood so obtained was used as a measure for the bleeding time compared to untreated animals (5 animals/test).

For data set [1], the system named is thrombocyte aggregation in the platelet-rich plasma of healthy human test subjects. The data set can be described thus: Inhibition of collagen-induced thrombocyte aggregation (method of Born and Cross). It counts as cell-based. Conditions: 10^-4 mol/liter test compound, 10 minutes incubation at 37° C, vs untreated controls; for inhibition at 100 µM: Homo sapiens, 10 min. The source says:
1. The inhibiting action upon thrombocyte aggregation was ascertained by the method of Born and Cross, J. Physiol. 170, 397 (1964), in the platelet-rich plasma of healthy human test subjects, by photometrically ascertaning and registering the rate of decrease of the optical density after addition of commercial collagen containing 1 mgm of collagen fibrils per ml. The angle of inclination of the density curve is a measure of the rate of aggregaton (V max.). The point on the curve which corresponded to the greatest lightpermeability was used for calculation of the optical density (o.D.).
The collagen doses were held to a minimum, but still sufficiently large to result in an irreversible aggregation. Prior to addition of collagen, each plasma sale was incubated for 10 minutes at 37° C with various amounts of the test compound. To provoke maximum aggregation, about 0.01 ml of the collagen solution was added to 1 ml of platelet-rich plasma.
The values in Table I below represent the inhibition of the aggregation rate in % (V max) and the alteration of the optical density (O.D.) in %, compared with the untreated controls, i.e. without addition of the test compound.

The test system of the next data set is white mice. The data set can be described thus: Acute toxicity after oral administration of a single dose. The settings on record: observation time 14 days. It counts as in vivo. As for the experimental part: (§1) The acute toxicity of the test compounds was determined in white mice (observation time: 14 days) after oral administration of a single dose.
Test in data set [2]: as above
Conditions: mouse, in vivo, po, white mice, observation time 14 days. It counts as in vivo. How it is done:
as §1

The mark [3] stands for this setting: 1 h, 1 hour after administration, read-out: Prolongation of bleeding time in % after 1 hour.
[4] abbreviates: 3 h, 3 hours after administration, read-out: Prolongation of bleeding time in % after 3 hours.
The mark [5] stands for this setting: read-out: Inhibition in % of the aggregation rate (V max).
[6] abbreviates: read-out: Inhibition in %: alteration of the optical density (O.D.).

Regarding `COC(=O)C[S+]([O-])C(C)c1ccc(-c2ccccc2F)cc1` (single isomer, unassigned) [A, [1-(2'-fluoro-4-biphenylyl)-ethylsulfinyl]-acetic acid methyl ester], the change in vivo at 10 mg/kg with non-anesthetized mice (setting [3]) worked out at 136%. For the same compound, in the data set on non-anesthetized mice (setting [4]), the change in vivo at 10 mg/kg came out at 66%. Further, in data set [1], the “Inhibition in % of the aggregation rate (V max)” value (from here on “Inhibition in % … (V max)”) is recorded as 32% and the “Inhibition in %: alteration of the optical density (O.D.)” value (from here on “Inhibition in %: alteration”) was found to be 45%. The “animals died (at the stated dose)” value in the data set on white mice is reported as 1 out of 10.
For the compound `COC(=O)C[S+]([O-])C(C)c1ccc(-c2ccccc2F)cc1` (single isomer, unassigned) [B, [1-(2'-fluoro-4-biphenylyl)-ethylsulfinyl]-acetic acid methyl ester], the “Prolongation of bleeding time in % after 1 hour” value in the data set with non-anesthetized mice (1 hour after administration) is 142%. Further, the “Prolongation of bleeding time in % after 3 hours” value in the data set with non-anesthetized mice (3 hours after administration) stood at 56%. Moreover, in data set [1], the “Inhibition in % … (V max)” value is 72% and the “Inhibition in %: alteration” value is on record as 81%. In addition, the “animals died (at the stated dose)” value in the data set with white mice was 2 out of 5.
For `COC(=O)C[S+]([O-])C(C)c1ccc(-c2ccccc2F)cc1` (single isomer, unassigned) [F, dextrorotatory [1-(2'-fluoro-4-biphenylyl)-ethylsulfinyl]-acetic acid methyl ester], in the data set on non-anesthetized mice (setting [3]), the change in vivo at 10 mg/kg was 117%. Further, the inhibition at 100 µM was 20% in data set [1] (setting [5]) and 19% in data set [1] (setting [6]).
As to `COC(=O)C[S+]([O-])C(C)c1ccc(-c2ccccc2F)cc1` (single isomer, unassigned) [G, levorotatory [1-(2'-fluoro-4-biphenylyl)-ethylsulfinyl]-acetic acid methyl ester], the “Prolongation of bleeding time in % after 1 hour” value in the data set on non-anesthetized mice (1 hour after administration) is reported as 129%. Moreover, in data set [1], the “Inhibition in % … (V max)” value turned out to be 13% and the “Inhibition in %: alteration” value is given as 27%.
The LD50 is the dose expected to kill half of the subjects tested. On to `CC(C)CCOC(=O)C[S+]([O-])C(C)c1ccc(-c2ccccc2F)cc1` (centres unmarked) [C, [1-(2'-fluoro-4-biphenylyl)-ethylsulfinyl]-acetic acid isoamyl ester], for which the figures for the change in vivo at 10 mg/kg with non-anesthetized mice (setting [3]) and in the data set on non-anesthetized mice (setting [4]) were 112% and 49%, respectively. The inhibition at 100 µM in data set [1] (setting [5]) worked out at 67%; in data set [1] (setting [6]), 82%. For the same compound, in the data set on white mice, the “animals died (at the stated dose)” value is given as 1 out of 5. In addition, in data set [2], the 50% lethal dose (LD50) at 336 h was > 250 mg/kg.
On to `COC(=O)C[S+]([O-])C(C)(C)c1ccc(-c2ccccc2F)cc1` (centres unmarked) [D], for which, in the data set on non-anesthetized mice (setting [3]), the change in vivo at 10 mg/kg came out at 71%. Further, the figures for the inhibition at 100 µM in data set [1] (setting [5]) and in data set [1] (setting [6]) were 37% and 48%, respectively. Moreover, the “animals died (at the stated dose)” value with white mice is reported as 2 out of 5. The median lethal dose (LD50) at 336 h in data set [2] was > 250 mg/kg.
Take `COC(=O)C[S+]([O-])CCC(C)c1ccc(-c2ccccc2)cc1` (centres unmarked) [E, [3-(4-biphenylyl)-butyl-(1)-sulfinyl]-acetic acid methyl ester]: the results for the change in vivo at 10 mg/kg with non-anesthetized mice (setting [3]) and in the data set on non-anesthetized mice (setting [4]) were 188% and 85%, respectively. Further, the inhibition at 100 µM was determined as 92% in data set [1] (setting [5]) and 95% in data set [1] (setting [6]). In addition, the “animals died (at the stated dose)” value in the data set on white mice was 0 out of 5. In addition, in data set [2], the LD50 at 336 h is > 250 mg/kg.
In the case of `CNC(=O)C[S+]([O-])C(C)c1ccc(-c2ccccc2F)cc1` (centres unmarked) [H, [1-(2'-fluoro-4-biphenylyl)-ethylsulfinyl]-acetic acid methyl amide], in the data set with non-anesthetized mice (setting [3]), the change in vivo at 10 mg/kg came to 64%. Also, the inhibition at 100 µM in data set [1] (setting [5]) came to 8%; in data set [1] (setting [6]) it was 13%. The “animals died (at the stated dose)” value in the data set with white mice is 0 out of 5. The LD50 at 336 h in data set [2] is > 250 mg/kg.
For `CC(c1ccc(-c2ccccc2F)cc1)[S+]([O-])CC(=O)N1CCCCC1` (centres unmarked) [I, [1-(2'-fluoro-4-biphenylyl)-ethylsulfinyl]-acetic acid piperidide], in that order: 122%, 85%, 90%, 0 out of 5 and > 250 mg/kg.
For `CC(c1ccc(-c2ccccc2F)cc1)[S+]([O-])CC(=O)N1CC[S+]([O-])CC1` (centres unmarked) [J, [1-(2'-fluoro-4-biphenylyl)-ethylsulfinyl]-acetic acid-(1-oxido-thiomorpholide)], in that order: 149%, 16%, 31%, 0 out of 5 and > 250 mg/kg.
On to `C[S+]([O-])CC(O)c1ccc(-c2ccc(F)cc2)cc1` (centres unmarked) [K], for which the change in vivo at 10 mg/kg turned out to be 68% in the data set with non-anesthetized mice (setting [3]) and 30% with non-anesthetized mice (setting [4]). Further, the inhibition at 100 µM in data set [1] (setting [5]) worked out at 59%; in data set [1] (setting [6]), 73%.
For `COC(=O)C[S+]([O-])CC(=O)c1ccc(-c2ccccc2)cc1` (centres unmarked) [L, [2-(4-biphenylyl)-2-oxo-ethylsulfinyl]-acetic acid methyl ester], in that order: 120%, 78%, 22% and 47%.
For `COC(=O)C[S+]([O-])CC(=O)c1ccc(-c2ccccc2F)cc1` (centres unmarked) [M, [2-(2'-fluoro-4-biphenylyl)-2-oxo-ethylsulfinyl]-acetic acid methyl ester], in that order: 90%, 39%, 97% and 95%.
In the case of `O=C(O)C[S+]([O-])CC(=O)c1ccc(-c2ccc(F)cc2)cc1` (centres unmarked) [N, [2-(4'-fluoro-4-biphenyl)-2-oxo-ethylsulfinyl]acetic acid], the change in vivo at 10 mg/kg in the data set on non-anesthetized mice (setting [3]) was determined as 98%; in the data set on non-anesthetized mice (setting [4]), 37%.
For `COC(=O)C[S+]([O-])C(C)c1ccc(-c2cccc(Cl)c2)cc1` (centres unmarked) [O, [1-(3'-chloro-4-biphenylyl)-ethylsulfinyl]-acetic acid methyl ester], in the data set on non-anesthetized mice (setting [3]), the change in vivo at 10 mg/kg is 12%. In addition, the figures for the inhibition at 100 µM in data set [1] (setting [5]) and in data set [1] (setting [6]) were 66% and 76%, respectively. For the same compound, the “animals died (at the stated dose)” value with white mice was 0 out of 5. In addition, in data set [2], the median lethal dose (LD50) at 336 h is > 250 mg/kg.
For `COC(=O)C[S+]([O-])C(C)c1ccc(-c2ccccc2[N+](=O)[O-])cc1` (centres unmarked) [P, [1-(2'-nitro-4-biphenylyl)ethylsulfinyl]-acetic acid methyl ester], in that order: 15%, 61%, 74%, 0 out of 5 and > 250 mg/kg.
For `COC(=O)C[S+]([O-])C(C)c1ccc(-c2ccccc2F)c(F)c1` (centres unmarked) [Q, [1-(2,2'-difluoro-4-biphenylyl)-ethylsulfinyl]-acetic acid methyl ester], in that order: 73%, 48%, 54%, 0 out of 5 and > 250 mg/kg.
As to `COC(=O)C[S+]([O-])C(C)c1ccc(-c2ccc(Br)cc2)c(F)c1` (centres unmarked) [R, [1-(2-fluoro-4'-bromo-4-biphenylyl)-ethylsulfinyl]-acetic acid methyl ester], the change in vivo at 10 mg/kg in the data set on non-anesthetized mice (setting [3]) was 50%. Also, the inhibition at 100 µM is 46% in data set [1] (setting [5]) and 64% in data set [1] (setting [6]).

The values above are taken from patent US3993683A, “Biphenylyl derivatives” (Boehringer Ingelheim GmbH, priority 1974, dated 1976).
